Measured values published in PubChem BioAssay (NCI).
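48-hour exposure; five concentrations; linearly interpolated endpoints. TGI: concentration producing complete growth inhibition.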

Experiments:
Experiment in all cases: NCI tumour cell line growth inhibition, 48 h
HT29 colon = tested on: HT29 colon
NCI-H23 lung = tested on: NCI-H23 lung
CCRF-CEM leukemia = tested on: CCRF-CEM leukemia
U251 CNS = tested on: U251 CNS
A549 NSCLC = tested on: A549 NSCLC
K-562 leukemia = tested on: K-562 leukemia
SF-539 CNS = tested on: SF-539 CNS
SNB-75 CNS = tested on: SNB-75 CNS
MDA-MB-231 breast = tested on: MDA-MB-231 breast
ACHN renal = tested on: ACHN renal
UACC-62 melanoma = tested on: UACC-62 melanoma
SN12C renal = tested on: SN12C renal
HS 578T breast = tested on: HS 578T breast
SK-MEL-28 melanoma = tested on: SK-MEL-28 melanoma
SK-MEL-5 melanoma = tested on: SK-MEL-5 melanoma
SF-295 CNS = tested on: SF-295 CNS
OVCAR-8 ovarian = tested on: OVCAR-8 ovarian
OVCAR-4 ovarian = tested on: OVCAR-4 ovarian
SR leukemia = tested on: SR leukemia
T-47D breast = tested on: T-47D breast

| Compound | TGI (HT29 colon) [µM] | TGI (NCI-H23 lung) [µM] | TGI (CCRF-CEM leukemia) [µM] | TGI (U251 CNS) [µM] | TGI (A549 NSCLC) [µM] | TGI (K-562 leukemia) [µM] | TGI (SF-539 CNS) [µM] | TGI (SNB-75 CNS) [µM] | TGI (MDA-MB-231 breast) [µM] | TGI (ACHN renal) [µM] | TGI (UACC-62 melanoma) [µM] | TGI (SN12C renal) [µM] | TGI (HS 578T breast) [µM] | TGI (SK-MEL-28 melanoma) [µM] | TGI (SK-MEL-5 melanoma) [µM] | TGI (SF-295 CNS) [µM] | TGI (OVCAR-8 ovarian) [µM] | TGI (OVCAR-4 ovarian) [µM] | TGI (SR leukemia) [µM] | TGI (T-47D breast) [µM] |
| --- | --- | --- | --- | --- | --- | --- | --- | --- | --- | --- | --- | --- | --- | --- | --- | --- | --- | --- | --- | --- |
| CN(CC(=O)O)c1ncc2c(n1)-c1ccccc1OC2 | > 100 | > 100 | > 100 | > 100 | > 100 | > 100 | > 100 | > 100 | > 100 | > 100 | > 100 | > 100 | > 100 | > 100 | > 100 | > 100 | > 100 | > 100 | > 100 | – |
| COC1O[C@H]2[C@H]3[C@@H]1[C@@H](OS(=O)(=O)c1ccc(C)cc1)C(=O)N3C[C@H]2O (stereo partly drawn) | > 100 | > 100 | – | > 100 | > 100 | > 100 | > 100 | – | > 100 | > 100 | > 100 | – | – | > 100 | > 100 | > 100 | > 100 | > 100 | > 100 | > 100 |
| CCOP(=O)(OCC)[C@H]1OC(C)(C)O[C@@H]1CO | > 100 | > 100 | > 100 | > 100 | > 100 | – | > 100 | – | > 100 | > 100 | > 100 | > 100 | > 100 | > 100 | > 100 | > 100 | > 100 | > 100 | – | > 100 |
| Cc1cc(-c2nc3ccc(F)cc3s2)ccc1N | > 100 | > 100 | > 100 | > 100 | > 100 | > 100 | > 100 | > 100 | > 100 | > 100 | > 100 | > 100 | > 100 | > 100 | > 100 | > 100 | > 100 | – | > 100 | – |
| CC(=O)OCC(OC(C)=O)C(OC(C)=O)C(OC(C)=O)C(C=NN(C(C)=O)S(=O)(=O)c1ccc(/C=C2\NC(=O)NC2=O)cc1)OC(C)=O (stereo not drawn) | > 100 | > 100 | > 100 | > 100 | > 100 | > 100 | – | > 100 | > 100 | > 100 | > 100 | > 100 | > 100 | – | > 100 | > 100 | > 100 | > 100 | – | > 100 |
| COC(=O)/C=C\C(C#N)(C#N)N=Cc1ccc(Br)s1 | – | 46.9 | 5.5 | 38 | 45.4 | > 100 | – | 29.4 | 4.51 | 6.1 | 24.9 | 35.1 | > 85.5 | 33.7 | 27.4 | 33 | 19.1 | 16.3 | – | > 30.6 |
| O=S(=O)(c1ccccc1)C1(CCC2OCCO2)C=CC2(CC1)OCCO2 (stereo not drawn) | > 100 | > 100 | > 100 | > 100 | > 100 | > 100 | – | > 100 | > 100 | > 100 | > 100 | > 100 | – | > 100 | > 100 | > 100 | > 100 | > 100 | > 100 | > 100 |
| CN(C)Cc1cc(C=O)cc(CN(C)C)c1O | > 100 | 67.4 | > 100 | > 100 | > 100 | > 100 | > 100 | > 100 | > 100 | > 100 | – | > 100 | > 100 | > 100 | > 100 | > 100 | > 100 | > 100 | > 100 | – |
| COc1cc(N(Cc2ccc3nc(OC)c(OC)nc3c2)Cc2ccc3nc(OC)c(OC)nc3c2)cc(OC)c1OC | > 50 | > 50 | – | > 50 | > 50 | – | > 50 | 15.6 | – | > 50 | > 50 | > 50 | 27.2 | > 50 | > 50 | > 50 | > 50 | > 50 | > 50 | > 50 |
| N#Cc1nc(C(CO)N(Cc2ccccc2)C(=O)O)oc1N (stereo not drawn) | > 100 | > 100 | – | > 100 | > 100 | > 100 | > 100 | > 100 | > 100 | > 100 | > 100 | > 100 | – | > 100 | > 100 | > 100 | > 100 | > 100 | > 100 | > 100 |
| Cc1ccc(-c2nc(-c3cnccn3)n(C3OC(CO)C(O)C(O)C3O)n2)cc1 (stereo not drawn) | > 100 | > 100 | > 100 | > 100 | > 100 | > 100 | > 100 | > 100 | > 100 | – | > 100 | > 100 | – | > 100 | > 100 | > 100 | > 100 | > 100 | > 100 | > 100 |
